# Values joined by “and” are separate entries in the source; they are usually repeats but may differ in a detail not shown here. Equal values may be shown once. Read-outs that look alike come from different tables or passages of the source.
# Columns and labels:
# [1] = system: CHO cell line that expresses an antibody; conditions: fed-batch, glutamine-free basal and feed media, substance 0.5-1 g/l
# Source text: (§2) A CHO cell line that expresses an antibody was used for the experiments.
# This is a serum-free, protein-free nutrient medium. It is a ready-made, sterile-filtered nutrient medium.
# After 1-4 days the cells were supplemented with a feed medium, i.e. the process was switched to fed-batch mode. Feed took place at regular intervals. In fed-batch experiments, a protein-free and serum-free feed medium from the company HyQ (R05.2 supplement, Cat. No.: SH30584.04, Lot No.: APF21457G) was used.
# All substances (chemicals) used according to the invention were obtained from the company Sigma and stock solutions were prepared from them. From the stock solutions, the substances were put at the desired final concentration in culture tubes. The various culture tubes prepared in this way were finally inoculated with the antibody-producing CHO-clone at a target inoculation cell concentration (1-3×10^5/ml). For this, the corresponding amount of inoculum cells was calculated and the required amount of inoculum cell suspension was centrifuged. […] In this way the desired inoculation cell concentration was adjusted in the cell suspension being investigated. The cell suspension thus prepared was proportioned in the culture tubes, which were provided with the substances according to the invention beforehand. The culture tubes were incubated at 37° C., and 8% CO2 atmosphere, with shaking. The culture tubes were cultivated for 8-11 days in the batch mode or in the fed-batch mode. Samples for offline measurement of the variables were taken from the culture vessels at regular intervals, for example daily or on every third day. The metabolic variables and cell concentrations of the samples were measured. Cell concentration and cell vitality were measured with a CeDex instrument. The metabolic variables (glucose, lactate, glutamine and ammonium) were determined with an analyzer (BioProfile 100).
# (§3) The following final concentrations of the substances according to the invention were established in a nutrient medium after inoculation:
# The substances according to the invention were tested under fed-batch conditions. […] The feed medium used was from the company HyQ (R05.2 supplement, Cat. No.: SH30584.04, Lot No.: APF21457G). The feed medium was glutamine-free (Table 4).
# [2] = system: CHO cell line that expresses an antibody; conditions: fed-batch; substance 1 g/l; supernatant, ELISA; absolute value of the control set at 100%
# Protocol: A CHO cell line that expresses an antibody was used for the experiments. The product concentration (antibody concentration) in the cell supernatant was determined by ELISA.
# From selected samples, the product concentration (antibody concentration) in the supernatant was determined by ELISA (Table 3)
# [3] = system: CHO cell line that expresses an antibody; assay: Fed-batch experiment with the substances according to the invention (Example 2, Table 2); assay type: cell-based, Chinese hamster; design: Viabil.: concentration or dose not given beside the values
# Source text: (§1) Feed took place at regular intervals.
# [4] = system: CHO cell line that expresses an antibody; assay: Batch experiment with the substances according to the invention (Example 1); assay type: cell-based, Chinese hamster; conditions: batch mode, substance 0.5-1 g/l, basal medium glucose 4.7 g/l, glutamine […]
# Protocol: Cells were stored in the gas phase of liquid nitrogen. One to two ampoules were thawed in nutrient medium preheated to 37° C. and transferred to spinner bottles, shaking flasks or T-bottles. In the first few days of cultivation the medium was changed, depending on the clone.
# Depending on the clone, cells were split either every second day or every third day or after two and three days alternately into new medium, i.e. a portion of the cell suspension was removed from culture and a smaller portion of the cell suspension was reused as inoculum for the next culture. This inoculum was made up with fresh prewarmed nutrient medium. Cells were incubated at 37° C. in an incubator with a CO2 atmosphere. An alternative for incubating cells was cultivation in an incubation chamber at 37° C., in this way cells were held in culture for several passages. A passage means a cultivation time of two to three days. At various points of time, cell suspension was taken from strain maintenance and used as inoculum for experiments. The experiments were carried out in various cultivation systems, for example in spinner bottles, T-bottles, shaking flasks, culture tubes or in controlled bioreactors.
# as §1
# [5] = system: CHO cell line that expresses an antibody; conditions: fed-batch, basal medium 4 mM glutamine, feed with 3 g/l Ala-Gln and 3 g/l Gly-Gln, substance 0.5-1 g/l
# Protocol: as §2
# The experiments were carried out either in batch mode or in fed-batch mode. When the process was carried out in fed-batch mode, the process was first started in batch mode in the above-mentioned basal medium and cells were cultivated in this manner for 1-4 days. After 1-4 days the cells were supplemented with a feed medium, i.e. the process was switched to fed-batch mode. Feed took place at regular intervals. In fed-batch experiments, a protein-free and serum-free feed medium from the company HyQ (R05.2 supplement, Cat. No.: SH30584.04, Lot No.: APF21457G) was used.
# From the stock solutions, the substances were put at the desired final concentration in culture tubes. The various culture tubes prepared in this way were finally inoculated with the antibody-producing CHO-clone at a target inoculation cell concentration (1-3×10^5/ml). For this, the corresponding amount of inoculum cells was calculated and the required amount of inoculum cell suspension was centrifuged. […] In this way the desired inoculation cell concentration was adjusted in the cell suspension being investigated. The cell suspension thus prepared was proportioned in the culture tubes, which were provided with the substances according to the invention beforehand. The culture tubes were incubated at 37° C., and 8% CO2 atmosphere, with shaking. The culture tubes were cultivated for 8-11 days in the batch mode or in the fed-batch mode. Samples for offline measurement of the variables were taken from the culture vessels at regular intervals, for example daily or on every third day. The metabolic variables and cell concentrations of the samples were measured. Cell concentration and cell vitality were measured with a CeDex instrument. The metabolic variables (glucose, lactate, glutamine and ammonium) were determined with an analyzer (BioProfile 100).
# as §3
# The substances according to the invention were tested under fed-batch conditions. […] The feed medium used was from the company HyQ (R05.2 supplement, Cat. No.: SH30584.04, Lot No.: APF21457G). 3 g/l alanyl-glutamine (Ala-Gin) and 3 g/l glycyl-glutamine (Gly-Gln) were added to the feed medium.
smiles,measurement,setting,value
CC(O)C(=O)[O-].[Na+] (stereo not drawn) [Sodium lactate],Sp. Gluc cons.,[1]; day 0,93
same,Sp. NH4 prod,[1]; day 0,98 % of control
same,TCD,[1]; day 0,100 % of control
same,VCD,[1]; day 0,100 % of control
same,Viabil.,[1]; day 0,94%
same,Sp. Gluc cons.,[1]; day 3,66
same,Sp. Lactate prod.,[1]; day 3,72 % of control
same,Sp. NH4 prod,[1]; day 3,63 % of control
same,TCD,[1]; day 3,140 % of control
same,VCD,[1]; day 3,148 % of control
same,Viabil.,[1]; day 3,94%
same,Sp. Gluc cons.,[1]; day 5,74
same,Sp. Lactate prod.,[1]; day 5,66 % of control
same,Sp. NH4 prod,[1]; day 5,72 % of control
same,TCD,[1]; day 5,128 % of control
same,VCD,[1]; day 5,136 % of control
same,Viabil.,[1]; day 5,97%
same,Sp. Gluc cons.,[1]; day 7,62
same,Sp. Lactate prod.,[1]; day 7,57 % of control
same,Sp. NH4 prod,[1]; day 7,66 % of control
same,TCD,[1]; day 7,136 % of control
same,VCD,[1]; day 7,147 % of control
same,Viabil.,[1]; day 7,95%
same,Sp. Gluc cons.,[1]; day 9,71
same,Sp. Lactate prod.,[1]; day 9,65 % of control
same,Sp. NH4 prod,[1]; day 9,73 % of control
same,TCD,[1]; day 9,131 % of control
same,VCD,[1]; day 9,133 % of control
same,Viabil.,[1]; day 9,95%
same,Antibody concentration,[2],124%
same,Total Cell Density TCD,"[3]; day 0, fed-batch",1.5 E5/ml
same,Viabil.,"[3]; day 0, fed-batch",91%
same,Viable Cell Density (VCD),"[3]; day 0, fed-batch",1.37 E5/ml
same,Total Cell Density TCD,"[3]; day 2, fed-batch",4.6 E5/ml and 4 E5/ml
same,Viabil.,"[3]; day 2, fed-batch",98% and 95%
same,Viable Cell Density (VCD),"[3]; day 2, fed-batch",4.5 E5/ml and 3.8 E5/ml
same,Total Cell Density TCD,"[3]; day 5, fed-batch",13.1 E5/ml and 14.3 E5/ml
same,Viabil.,"[3]; day 5, fed-batch",98%
same,Viable Cell Density (VCD),"[3]; day 5, fed-batch",12.8 E5/ml and 14 E5/ml
same,Total Cell Density TCD,"[3]; day 8, fed-batch",52.4 E5/ml and 54.7 E5/ml
same,Viabil.,"[3]; day 8, fed-batch",96% and 95%
same,Viable Cell Density (VCD),"[3]; day 8, fed-batch",50.2 E5/ml and 52 E5/ml
same,Gln,[4]; day 0,1.53 mM
same,Glucose,[4]; day 0,4.69 g/L
same,Lactate,[4]; day 0,1 g/L
same,NH4,[4]; day 0,1.22 mM
same,Specific Glutamin consumption (Gln/VCD),[4]; day 0,1.49
same,Specific ammonia production (NH4/VCD),[4]; day 0,1.18
same,Specific glucose consumption (Gluc/VCD),[4]; day 0,4.55
same,Specific lactate production (Lac/VCD),[4]; day 0,0.97
same,Total Cell Density TCD,[4]; day 0,1.07 E5/ml
same,Viabil.,[4]; day 0,96%
same,Viable Cell Density (VCD),[4]; day 0,1.03 E5/ml
same,Gln,[4]; day 3,1.12 mM
same,Glucose,[4]; day 3,4.44 g/L
same,Lactate,[4]; day 3,1.15 g/L
same,NH4,[4]; day 3,1.65 mM
same,Specific Glutamin consumption (Gln/VCD),[4]; day 3,0.19
same,Specific ammonia production (NH4/VCD),[4]; day 3,0.28
same,Specific glucose consumption (Gluc/VCD),[4]; day 3,0.74
same,Specific lactate production (Lac/VCD),[4]; day 3,0.19
same,Total Cell Density TCD,[4]; day 3,6 E5/ml
same,Viabil.,[4]; day 3,100%
same,Viable Cell Density (VCD),[4]; day 3,6 E5/ml
same,Gln,[4]; day 6,0.31 mM
same,Glucose,[4]; day 6,2.82 g/L
same,Lactate,[4]; day 6,1.49 g/L
same,NH4,[4]; day 6,2.07 mM
same,Specific Glutamin consumption (Gln/VCD),[4]; day 6,0.01
same,Specific ammonia production (NH4/VCD),[4]; day 6,0.05
same,Specific glucose consumption (Gluc/VCD),[4]; day 6,0.07
same,Specific lactate production (Lac/VCD),[4]; day 6,0.04
same,Total Cell Density TCD,[4]; day 6,41 E5/ml
same,Viabil.,[4]; day 6,99%
same,Viable Cell Density (VCD),[4]; day 6,40.6 E5/ml
same,Gln,[4]; day 8,0.35 mM
same,Glucose,[4]; day 8,1.79 g/L
same,Lactate,[4]; day 8,1.47 g/L
same,NH4,[4]; day 8,2.63 mM
same,Specific Glutamin consumption (Gln/VCD),[4]; day 8,0.02
same,Specific ammonia production (NH4/VCD),[4]; day 8,0.12
same,Specific glucose consumption (Gluc/VCD),[4]; day 8,0.08
same,Specific lactate production (Lac/VCD),[4]; day 8,0.07
same,Total Cell Density TCD,[4]; day 8,23.7 E5/ml
same,Viabil.,[4]; day 8,90%
same,Viable Cell Density (VCD),[4]; day 8,21.3 E5/ml
same,Gln,[4]; day 11,0.5 mM
same,Glucose,[4]; day 11,0.55 g/L
same,Lactate,[4]; day 11,1.04 g/L
same,NH4,[4]; day 11,3.12 mM
same,Specific Glutamin consumption (Gln/VCD),[4]; day 11,0.04
same,Specific ammonia production (NH4/VCD),[4]; day 11,0.27
same,Specific glucose consumption (Gluc/VCD),[4]; day 11,0.05
same,Specific lactate production (Lac/VCD),[4]; day 11,0.09
same,Total Cell Density TCD,[4]; day 11,24.5 E5/ml
same,Viabil.,[4]; day 11,47%
same,Viable Cell Density (VCD),[4]; day 11,11.4 E5/ml
same,Total Cell Density TCD,[5]; day 0,1.1 E5/ml
same,Viabil.,[5]; day 0,96%
same,Viable Cell Density (VCD),[5]; day 0,1.0 E5/ml
same,Total Cell Density TCD,[5]; day 3,7.9 E5/ml
same,Viabil.,[5]; day 3,96%
same,Viable Cell Density (VCD),[5]; day 3,7.6 E5/ml
same,Total Cell Density TCD,[5]; day 5,45.2 E5/ml
same,Viabil.,[5]; day 5,96%
same,Viable Cell Density (VCD),[5]; day 5,43.3 E5/ml
same,Total Cell Density TCD,[5]; day 7,41.1 E5/ml
same,Viabil.,[5]; day 7,83%
same,Viable Cell Density (VCD),[5]; day 7,34.3 E5/ml
same,Total Cell Density TCD,[5]; day 9,34.7 E5/ml
same,Viabil.,[5]; day 9,73%
same,Viable Cell Density (VCD),[5]; day 9,25.2 E5/ml
O=C(O)C(O)C(O)C(=O)O (stereo not drawn) [Tartaric acid],Total Cell Density TCD,"[3]; day 0, fed-batch",1.5 E5/ml
same,Viabil.,"[3]; day 0, fed-batch",91%
same,Viable Cell Density (VCD),"[3]; day 0, fed-batch",1.37 E5/ml
same,Total Cell Density TCD,"[3]; day 2, fed-batch",4 E5/ml and 3.9 E5/ml
same,Viabil.,"[3]; day 2, fed-batch",98% and 97%
same,Viable Cell Density (VCD),"[3]; day 2, fed-batch",3.9 E5/ml and 3.8 E5/ml
same,Total Cell Density TCD,"[3]; day 5, fed-batch",10.4 E5/ml and 9.6 E5/ml
same,Viabil.,"[3]; day 5, fed-batch",93% and 95%
same,Viable Cell Density (VCD),"[3]; day 5, fed-batch",9.7 E5/ml and 9.1 E5/ml
same,Total Cell Density TCD,"[3]; day 8, fed-batch",26.6 E5/ml and 27.7 E5/ml
same,Viabil.,"[3]; day 8, fed-batch",89% and 90%
same,Viable Cell Density (VCD),"[3]; day 8, fed-batch",23.7 E5/ml and 25 E5/ml
same,Gln,[4]; day 0,1.53 mM
same,Glucose,[4]; day 0,4.69 g/L
same,Lactate,[4]; day 0,0 g/L
same,NH4,[4]; day 0,1.22 mM
same,Specific Glutamin consumption (Gln/VCD),[4]; day 0,1.49
same,Specific ammonia production (NH4/VCD),[4]; day 0,1.18
same,Specific glucose consumption (Gluc/VCD),[4]; day 0,4.55
same,Specific lactate production (Lac/VCD),[4]; day 0,0.00
same,Total Cell Density TCD,[4]; day 0,1.07 E5/ml
same,Viabil.,[4]; day 0,96%
same,Viable Cell Density (VCD),[4]; day 0,1.03 E5/ml
same,Gln,[4]; day 3,0.9 mM
same,Glucose,[4]; day 3,4.53 g/L
same,Lactate,[4]; day 3,0.41 g/L
same,NH4,[4]; day 3,1.84 mM
same,Specific Glutamin consumption (Gln/VCD),[4]; day 3,0.17
same,Specific ammonia production (NH4/VCD),[4]; day 3,0.34
same,Specific glucose consumption (Gluc/VCD),[4]; day 3,0.84
same,Specific lactate production (Lac/VCD),[4]; day 3,0.08
same,Total Cell Density TCD,[4]; day 3,5.5 E5/ml
same,Viabil.,[4]; day 3,98%
same,Viable Cell Density (VCD),[4]; day 3,5.4 E5/ml
same,Gln,[4]; day 6,0.19 mM
same,Glucose,[4]; day 6,3.56 g/L
same,Lactate,[4]; day 6,0.6 g/L
same,NH4,[4]; day 6,2.89 mM
same,Specific Glutamin consumption (Gln/VCD),[4]; day 6,0.00
same,Specific ammonia production (NH4/VCD),[4]; day 6,0.07
same,Specific glucose consumption (Gluc/VCD),[4]; day 6,0.09
same,Specific lactate production (Lac/VCD),[4]; day 6,0.02
same,Total Cell Density TCD,[4]; day 6,41.3 E5/ml
same,Viabil.,[4]; day 6,97%
same,Viable Cell Density (VCD),[4]; day 6,40 E5/ml
same,Gln,[4]; day 8,0.27 mM
same,Glucose,[4]; day 8,2.65 g/L
same,Lactate,[4]; day 8,0.64 g/L
same,NH4,[4]; day 8,3.42 mM
same,Specific Glutamin consumption (Gln/VCD),[4]; day 8,0.03
same,Specific ammonia production (NH4/VCD),[4]; day 8,0.33
same,Specific glucose consumption (Gluc/VCD),[4]; day 8,0.25
same,Specific lactate production (Lac/VCD),[4]; day 8,0.06
same,Total Cell Density TCD,[4]; day 8,12.1 E5/ml
same,Viabil.,[4]; day 8,87%
same,Viable Cell Density (VCD),[4]; day 8,10.5 E5/ml
same,Gln,[4]; day 11,0.42 mM
same,Glucose,[4]; day 11,1.71 g/L
same,Lactate,[4]; day 11,0.79 g/L
same,NH4,[4]; day 11,3.87 mM
same,Specific Glutamin consumption (Gln/VCD),[4]; day 11,0.05
same,Specific ammonia production (NH4/VCD),[4]; day 11,0.44
same,Specific glucose consumption (Gluc/VCD),[4]; day 11,0.20
same,Specific lactate production (Lac/VCD),[4]; day 11,0.09
same,Total Cell Density TCD,[4]; day 11,18 E5/ml
same,Viabil.,[4]; day 11,48%
same,Viable Cell Density (VCD),[4]; day 11,8.7 E5/ml
O=C(O)CCC(=O)C(=O)O [α-Keto-glutarate],Sp. Gluc cons.,[1]; day 0,94
same,Sp. NH4 prod,[1]; day 0,100 % of control
same,TCD,[1]; day 0,100 % of control
same,VCD,[1]; day 0,100 % of control
same,Viabil.,[1]; day 0,94%
same,Sp. Gluc cons.,[1]; day 3,98
same,Sp. Lactate prod.,[1]; day 3,70 % of control
same,Sp. NH4 prod,[1]; day 3,94 % of control
same,TCD,[1]; day 3,94 % of control
same,VCD,[1]; day 3,103 % of control
same,Viabil.,[1]; day 3,96%
same,Sp. Gluc cons.,[1]; day 5,98
same,Sp. Lactate prod.,[1]; day 5,72 % of control
same,Sp. NH4 prod,[1]; day 5,94 % of control
same,TCD,[1]; day 5,103 % of control
same,Viabil.,[1]; day 5,93%
same,Sp. Gluc cons.,[1]; day 7,95
same,Sp. Lactate prod.,[1]; day 7,72 % of control
same,Sp. NH4 prod,[1]; day 7,95 % of control
same,TCD,[1]; day 7,96 % of control
same,VCD,[1]; day 7,99 % of control
same,Viabil.,[1]; day 7,90%
same,Sp. Gluc cons.,[1]; day 9,109
same,Sp. Lactate prod.,[1]; day 9,79 % of control
same,Sp. NH4 prod,[1]; day 9,103 % of control
same,TCD,[1]; day 9,92 % of control
same,VCD,[1]; day 9,92 % of control
same,Viabil.,[1]; day 9,93%
same,Viabil.,"[3]; day 0, fed-batch",91%
same,Viabil.,"[3]; day 2, fed-batch",97%
same,Viabil.,"[3]; day 5, fed-batch",97%
same,Viabil.,"[3]; day 8, fed-batch",95%
same,Viabil.,[5]; day 0,96%
same,Viabil.,[5]; day 3,93%
same,Viabil.,[5]; day 5,96%
same,Viabil.,[5]; day 7,84%
same,Viabil.,[5]; day 9,67%
